Consider 67 compounds from the pKa sets of Baltruschat and Czodrowski (2020).

Usually pKa stands for the pH at which an ionisable group is half protonated. High values mean a weaker acid or stronger base, low ones a stronger acid or weaker base.

In the case of `Cc1cc(N)ccc1S(=O)(=O)Nc1nccs1`, where the note is “acidic group”, the pKa was 7.3.
Regarding `c1ccnnc1`, the pKa (basic group) was found to be 2.33.
Turning to `O=C([O-])[C@H]1O[C@@H]1C(=O)O`, where the note is “acidic group”, the pKa stood at 3.25.
As to `O=C1Cc2c1ccc(O)c2[N+](=O)[O-]`, where the note is “acidic group”, the pKa worked out at 3.98.
Still for that read-out and setting: then `C[n+]1cccc(O)c1`, with 4.96.
Regarding `CC(C)(C)c1ccc(N)cc1`, the pKa (basic group) came to 4.95.
On the same count and under the same terms, to `C1CSCN1` belongs 6.31; to `CC(=O)N(N=C(C)C)C1CCN(C)CC1`, 8.6; to `Brc1ccc(-c2ncc(-c3ccccc3)o2)cc1`, 0.4.
Take `Cc1cccc(CN(C)C)c1O`: the pKa (acidic group) was determined as 11.1 and the pKa (basic group) stood at 8.18.
Under “acidic group”, `CCCCC1(CC)C(=O)[N-]C(=S)NC1=O` had a pKa of 12.1.
`Nc1nc2ccccc2o1` returned a pKa (basic group) of 3.73.
`CN(C(=O)c1ccccc1)c1ccncc1` returned a pKa (basic group) of 4.68.
The compound `C[NH+](C)CCC/N=C(\c1ccccc1)c1ccc2ccccc2c1` yielded a pKa (basic group) of 5.1.
On the same count and under the same terms, to `Nc1ccc(N)c(N)c1` belongs 6.1.
Under “basic group”, `N[C@H]1CCC[C@H]1C(=O)Oc1ccc([N+](=O)[O-])cc1` yielded a pKa of 8.36.
As for `CC(=O)C(Cc1ccc([N+](=O)[O-])cc1)C(C)=O`, under “acidic group”, the pKa came out at 9.54.
Under “basic group”, `N[C@@H](Cc1nc(I)[n-]c1I)C(=O)[O-]` displayed a pKa of 9.76.
The compound `CN(C)CCCCCCCCCNC(=O)/C=N/[O-]` displayed a pKa (basic group) of 10.5.
`COc1c(Cl)cc(Cl)c(O)c1C(=O)NC1CC[NH+](C)CC1`: for the setting “acidic group”, the pKa is 6.02.
Regarding `Cc1nc(N)c2cnn(C)c2n1`, the pKa (basic group) amounted to 5.
In the case of `CC(C)CNCC(C)C`, where the note is “basic group”, the pKa came to 10.6.
`Cn1cncc1C[C@H](N)C(=O)[O-]`: the pKa (basic group) stood at 8.72.
Still for that read-out and setting: to `CCCc1ccc([C@@H]2CCC[NH+]2C)cn1` belongs 3.65.
For the compound `Cc1ccccc1OCC(=O)O`, the pKa (acidic group) amounted to 3.17.
For `O=[N+]([O-])c1cc(Cl)c(O)c(Cl)c1`, the pKa (acidic group) amounted to 3.7.
On to `CCOc1ccc2nccc([C@@H](O)[C@@H]3C[C@H]4CCN3C[C@@H]4CC)c2c1`, for which the pKa (basic group) was 8.5.
Compound `Cc1ccccc1/C(=N\CCCN(C)C)c1ccccc1-c1ccccc1` registered a pKa (basic group) of 9.25.
In turn, `Cc1cccc(O)c1O` registered a pKa (acidic group) of 9.28.
For `Cc1ccc(O)c(C)c1`, the pKa (acidic group) was 10.6.
For the compound `CN(C)CCCCC(=O)Oc1cccc([N+](=O)[O-])c1`, the pKa (basic group) was found to be 10.1.
In the case of `[O-][n+]1ccc(NO)c2ccccc21`, the pKa (acidic group) worked out at 9.52.
Same read-out and setting: then `O=C(O)/C=C\c1c[nH]c[nH+]1`, with 3; and `NC(=O)Nc1[nH]c[nH+]c1C(=O)O`, with 2.
`C[C@@H]1[C@@H](N)[C@H]1[NH3+]` showed a pKa (basic group) of 4.35.
Take `OCc1nc2cc(Cl)ccc2[nH]1`: the pKa is, setting by setting: (acidic group) 11.5; (basic group) 4.63.
Compound `CC(C)(C)c1ccc(SCC(=O)O)cc1` registered a pKa (acidic group) of 3.76.
As to `CCc1ccc(C(=O)[O-])nc1`, for the setting “basic group”, the pKa worked out at 5.86.
As for `CN(C)Cc1ccc(O)c(O)c1O`, under “basic group”, the pKa was found to be 8.26.
Under “basic group”, `CCCCCCN` came in with a pKa of 10.7.
In the case of `CC(I)C(=O)O` (stereo not given), for the setting “acidic group”, the pKa was found to be 3.21.
`O=[N+]([O-])c1cc(O)ccc1[O-]` came in with a pKa (acidic group) of 10.1.
Take `CCNc1nnn[nH]1`: the pKa (acidic group) stood at 6.12.
Still for that read-out and setting: then `O=C(O)Cn1nnnc1-c1ccccc1`, with 2.11.
On the same count and under the same terms, then `Cc1ccc(C(=O)/C=C/C(=O)O)cc1`, with 3.44.
Regarding `CN1C(=O)N(CCN2CCOCC2)C(=O)C(C)(C2=CCCCC2)C1=O` (stereo not given), the pKa (basic group) worked out at 5.75.
Same read-out and setting: to `Cc1nc([O-])n[nH]1` belongs 9.43; to `COc1ccc2nccc(C(O)C3CCCCN3)c2c1` (stereo not given), 9.3.
As to `CC[C@@H]1OC(=O)[C@@H](C)[C@H](O)[C@@H](C)[C@H](O[C@H]2O[C@@H](C)C[C@@H]([N+](C)(C)O)[C@@H]2O)[C@]2(C)C[C@H](C)C3(O[C@]1(C)C=C3C)O2`, the pKa (acidic group) worked out at 4.3.
Under “acidic group”, `CC1(C)CC(=O)C(=NO)C(=O)C1` showed a pKa of 5.4.
On the same count and under the same terms, then `CC1c2cc(O)ccc2CC1CC(=O)O` (stereo not given), with 5.3.
Take `C1CCN2CCCCN2C1`: the pKa (basic group) came to 6.79.
Compound `O=C1Oc2ccccc2C(=O)C1Cc1c([O-])c2ccccc2oc1=O` (stereo not given) yielded a pKa (acidic group) of 8.3.
For the compound `c1ccc2[nH]cnc2c1`, the pKa is, setting by setting: (acidic group) 12.6; (basic group) 5.51.
As for `Oc1c(Cc2ccccc2)c(-c2ccccc2)nn1-c1ccccc1`, the pKa (acidic group) is 7.6.
On to `CN[C@H]1C[C@]1(C)[NH2+]C`, for which, where the note is “basic group”, the pKa turned out to be 5.52.
For `O=C(O)[C@@H]1CC[C@H](C(=O)[O-])[Se]1`, the pKa (acidic group) was determined as 4.55.
With `CCN(Cl)CC`, under “basic group”, the pKa amounted to 1.02.
Still for that read-out and setting: to `C/C(CN(C)C)=N\[O-]` belongs 10.9.
In turn, `Nc1cnc2ccccc2n1` yielded a pKa (basic group) of 3.93.
As to `O=C(O)C1CCc2ccccc2O1` (stereo not given), the pKa (acidic group) was determined as 3.38.
The compound `CN1CCC=C(C#N)C1` showed a pKa (basic group) of 6.35.
For `CC(=O)c1ccc(NS(=O)(=O)c2ccccc2)cc1`, the pKa (acidic group) came to 6.94.
On to `O=C(O)C#CI`, for which, for the setting “acidic group”, the pKa turned out to be 2.
`CNc1cnccc1N` gave a pKa (basic group) of 9.14.
Where the note is “acidic group”, `COc1cccc([N+](=O)[O-])c1O` came in with a pKa of 6.74.
`COC(=O)C1=CN2CCC1CC2` registered a pKa (basic group) of 7.17.
